Assay results as given in PMC7909954 (eLife, 2021).
Where “and” joins values, the source holds several entries; their conditions need not be identical. Identical values can stand only once. Like-named read-outs stand apart in the source and are kept apart here.

What was measured:
mDOR [1] = molecular target: T1, mDOR (Mus musculus, UniProt P32300); experiment: cell-based; conditions: for Emax: HEK-293T, read-out: Emax% G protein activation (BRET) mDOR
mDOR [2] = molecular target: T1, mDOR; experiment: biochemical; conditions: read-out: Emax mDOR [35S]GTPγS
Y312W-hKOR [3] = molecular target: T2, Y312W-hKOR (Homo sapiens, UniProt P41145, Y312W); experiment: cell-based; conditions: read-out: Emax% cAMP inhibition Y312W-hKOR
T2 sequence (P41145 whole entry Y312W): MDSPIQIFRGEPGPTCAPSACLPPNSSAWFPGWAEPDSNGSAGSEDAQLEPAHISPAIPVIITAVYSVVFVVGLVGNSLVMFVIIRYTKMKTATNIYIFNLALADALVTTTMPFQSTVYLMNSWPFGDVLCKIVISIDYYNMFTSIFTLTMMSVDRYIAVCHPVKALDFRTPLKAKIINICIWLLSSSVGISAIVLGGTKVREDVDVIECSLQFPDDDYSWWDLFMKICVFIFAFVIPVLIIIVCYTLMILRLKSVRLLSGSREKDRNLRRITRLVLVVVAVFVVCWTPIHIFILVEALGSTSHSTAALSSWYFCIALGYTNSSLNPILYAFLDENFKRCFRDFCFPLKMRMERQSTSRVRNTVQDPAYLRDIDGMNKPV

rKOR [4] = molecular target: T3, rKOR (Rattus norvegicus, UniProt P34975); experiment: cell-based; conditions: for Emax: HEK-293T, read-out: Emax% G protein activation (BRET) rKOR
T3 sequence (P34975 whole entry): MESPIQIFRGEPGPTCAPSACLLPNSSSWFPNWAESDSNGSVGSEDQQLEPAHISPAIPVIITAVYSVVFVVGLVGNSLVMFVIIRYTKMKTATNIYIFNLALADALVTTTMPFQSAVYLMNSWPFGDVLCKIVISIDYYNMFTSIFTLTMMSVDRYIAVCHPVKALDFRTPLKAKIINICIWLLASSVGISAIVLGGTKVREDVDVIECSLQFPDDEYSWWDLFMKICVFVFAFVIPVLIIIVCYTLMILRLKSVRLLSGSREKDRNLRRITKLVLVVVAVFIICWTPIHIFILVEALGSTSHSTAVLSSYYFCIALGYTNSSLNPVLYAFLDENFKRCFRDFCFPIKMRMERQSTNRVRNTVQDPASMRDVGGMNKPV

KOR [5] = molecular target: T4, KOR (Homo sapiens, UniProt P41145); conditions: for Log RA cAMP hKOR / LogRA Tango hKOR: transduction coefficient log(T/KA)
T4 sequence (P41145 whole entry): as the sequence (P41145 whole entry Y312W) above, with W312Y counted along it

rKOR [6] = molecular target: T3, rKOR; conditions: BRET, rodent receptors
MOR [7] = molecular target: T5, MOR (Homo sapiens, UniProt P35372)
T5 sequence (P35372 whole entry): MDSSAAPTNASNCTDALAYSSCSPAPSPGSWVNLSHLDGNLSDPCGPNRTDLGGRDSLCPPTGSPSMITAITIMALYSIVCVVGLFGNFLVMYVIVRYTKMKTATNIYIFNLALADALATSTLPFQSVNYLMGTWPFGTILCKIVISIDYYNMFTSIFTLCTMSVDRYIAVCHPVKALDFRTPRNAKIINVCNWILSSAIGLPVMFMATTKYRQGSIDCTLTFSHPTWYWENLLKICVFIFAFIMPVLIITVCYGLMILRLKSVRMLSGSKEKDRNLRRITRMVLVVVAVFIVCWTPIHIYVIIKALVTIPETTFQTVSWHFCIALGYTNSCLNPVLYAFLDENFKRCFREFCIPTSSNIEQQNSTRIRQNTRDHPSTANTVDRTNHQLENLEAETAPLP

mDOR [8] = molecular target: T1, mDOR; conditions: binding assays
mKOR [9] = molecular target: T6, mKOR (Mus musculus, UniProt P33534); experiment: biochemical
T6 sequence (P33534 whole entry): as the sequence (P34975 whole entry) above, with E11D, A17S, P51S, V308A counted along it

mKOR [10] = molecular target: T6, mKOR; experiment: biochemical; conditions: for EC50: EC50 mKOR [35S]GTPγS, ± SEM; for Emax: read-out: Emax mKOR [35S]GTPγS
DOR [11] = molecular target: T7, DOR (Homo sapiens, UniProt P41143); experiment: cell-based; conditions: for EC50: Tango; for Emax: HTLA, read-out: Emax% arrestin recruitment hDOR
T7 sequence (P41143 whole entry): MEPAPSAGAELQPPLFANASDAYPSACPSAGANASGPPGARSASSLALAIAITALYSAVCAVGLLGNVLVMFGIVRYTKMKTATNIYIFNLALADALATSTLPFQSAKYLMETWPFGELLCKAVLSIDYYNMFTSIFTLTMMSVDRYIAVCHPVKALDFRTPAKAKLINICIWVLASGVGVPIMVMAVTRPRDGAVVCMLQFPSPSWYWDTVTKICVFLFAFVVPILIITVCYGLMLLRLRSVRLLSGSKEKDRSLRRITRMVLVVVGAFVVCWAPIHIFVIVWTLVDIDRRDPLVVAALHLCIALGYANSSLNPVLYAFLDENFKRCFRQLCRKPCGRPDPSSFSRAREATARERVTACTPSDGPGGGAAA

mMOR [12] = molecular target: T8, mMOR (Mus musculus, UniProt P42866); experiment: biochemical
T8 sequence (P42866 whole entry): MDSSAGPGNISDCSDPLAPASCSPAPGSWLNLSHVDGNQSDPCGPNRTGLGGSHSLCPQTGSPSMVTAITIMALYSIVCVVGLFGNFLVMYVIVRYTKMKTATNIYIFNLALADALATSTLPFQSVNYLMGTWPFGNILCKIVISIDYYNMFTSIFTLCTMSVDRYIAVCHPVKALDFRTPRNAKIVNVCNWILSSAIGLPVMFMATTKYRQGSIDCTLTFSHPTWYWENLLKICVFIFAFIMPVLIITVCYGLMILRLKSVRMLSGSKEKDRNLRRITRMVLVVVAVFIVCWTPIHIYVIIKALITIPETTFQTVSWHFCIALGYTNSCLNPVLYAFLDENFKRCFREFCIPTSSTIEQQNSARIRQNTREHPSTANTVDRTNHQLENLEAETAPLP

KOR [13] = molecular target: T4, KOR; experiment: cell-based; conditions: for EC50: EC50 cAMP inhibition hKOR; for Emax: HEK-293T, read-out: Emax% cAMP inhibition hKOR
KOR [14] = molecular target: T4, KOR; experiment: cell-based; conditions: for Emax: HTLA, read-out: Emax% arrestin recruitment (Tango) hKOR
mMOR [15] = molecular target: T8, mMOR; experiment: biochemical; conditions: for EC50: EC50 mMOR [35S]GTPγS, ± SEM; for Emax: read-out: Emax mMOR [35S]GTPγS
mMOR [16] = molecular target: T8, mMOR; experiment: cell-based; conditions: for EC50: EC50 G protein activation (BRET) mMOR; for Emax: HEK-293T, read-out: Emax% G protein activation (BRET) mMOR
DOR [17] = molecular target: T7, DOR; experiment: cell-based; conditions: for EC50: EC50 cAMP inhibition hDOR; for Emax: HEK-293T, read-out: Emax% cAMP inhibition hDOR
MOR [18] = molecular target: T5, MOR; experiment: cell-based; conditions: for Emax: HEK-293T, read-out: Emax% cAMP inhibition hMOR
[19] = system: MOR KO, KOR KO and DOR KO mice; experiment: 55°C warm-water tail-withdrawal assay in opioid receptor knock out mice; assay type: in vivo, mouse
mMOR [20] = molecular target: T8, mMOR; experiment: cell-based; parameters: expressed in transfected cells; host or cells: HEK-293T
rKOR [21] = molecular target: T3, rKOR
mDOR [22] = molecular target: T1, mDOR; experiment: cell-based
Y312W-hKOR [23] = molecular target: T2, Y312W-hKOR
mMOR [24] = molecular target: T8, mMOR
Y312W-hKOR [25] = molecular target: T2, Y312W-hKOR; experiment: cell-based
MOR [26] = molecular target: T5, MOR; experiment: cell-based
MOR [27] = molecular target: T5, MOR; remark: listed apart in the source
rKOR [28] = molecular target: T3, rKOR; experiment: cell-based; conditions: HEK-293T, read-out: Emax% arrestin recruitment (BRET) rKOR
[29] = EC50 G protein activation (BRET) mDOR
[30] = EC50 arrestin recruitment (Tango) hKOR
[31] = DOR KO mice, 100 nmol i.c.v., 40 min, single mice and mean (n=8)
[32] = DOR KO mice, 100 nmol i.c.v., 110 min, single mice and mean (n=8)
[33] = MOR KO mice, 100 nmol i.c.v., 60 min, single mice and mean (n=8)
[34] = MOR KO mice, 100 nmol i.c.v., 70 min, single mice and mean (n=8)
[35] = MOR KO mice, 100 nmol i.c.v., 80 min, single mice and mean (n=8)
[36] = MP1207 30 nmol icv, MP1208 35 nmol icv

T1 sequence (P32300 whole entry): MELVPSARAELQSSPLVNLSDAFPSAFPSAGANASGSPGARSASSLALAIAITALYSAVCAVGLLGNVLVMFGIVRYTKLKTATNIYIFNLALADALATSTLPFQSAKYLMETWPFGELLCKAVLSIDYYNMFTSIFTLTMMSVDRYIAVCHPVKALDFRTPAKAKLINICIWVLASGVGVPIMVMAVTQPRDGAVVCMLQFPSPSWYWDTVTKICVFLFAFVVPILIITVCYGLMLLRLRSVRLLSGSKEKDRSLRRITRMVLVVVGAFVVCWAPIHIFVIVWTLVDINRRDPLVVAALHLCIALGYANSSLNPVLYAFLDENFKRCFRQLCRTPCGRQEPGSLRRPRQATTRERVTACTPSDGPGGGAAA

## N=C(N)NCc1cccc(C(=O)N[C@@H]2CCC3C4Cc5ccc(O)c6c5[C@@]3(CCN4CC3CC3)C2O6)c1 (stereo partly drawn) [MP1208, N-((7R,12bS)−3-(Cyclopropylmethyl)−9-hydroxy-2,3,4,4a,5,6,7,7a-octahydro-1H-4,12-methanobenzofuro[3,2-e]isoquinolin-7-yl)−3-(guanidinomethyl)benzamide]
mDOR [1]; [29]
  EC50: 26.6 nM
mDOR [1]
  Emax: 58 ± 3.3%
mDOR [2]
  Emax: 10 to 15%
Y312W-hKOR [3]
  Emax: 97 ± 1%
rKOR [4]
  EC50: 1.07 nM
  Emax: 40 ± 2.4%
KOR [5]
  ΔΔlog RA (cAMP-Tango) hKOR: 1.35±0.022
  Log RA cAMP hKOR: 9.83±0.004
  LogRA Tango hKOR: 7.447±0.020
KOR [5]; >1 G protein bias, <1 arrestin bias, vs U50,488h
  Bias factor (cAMP-Tango) hKOR: 22
KOR [5]; vs U50,488h
  ΔlogRA Tango hKOR: -0.697±0.022
  ΔlogRA cAMP hKOR: 0.65±0.005
rKOR [6]
  arrestin recruitment at rKOR (in words): No recruitment of βarrestin-2
MOR [7]
  arrestin recruitment at hMOR (in words): completely abolished
mDOR [8]
  selectivity for MOR and KOR over DOR: more than 40 fold
mKOR [9]
  Ki: 0.28 ± 0.02 nM
mKOR [10]
  EC50: 1.4 nM and 1.36 nM
  Emax: 43 ± 0.8%
DOR [11]; EC50 arrestin recruitment hDOR
  EC50: 3620 nM
DOR [11]
  Emax: 62 ± 16.7%
DOR [11]; pEC50 arrestin recruitment hDOR, ± SEM
  EC50: 3160 nM
mMOR [12]
  Ki: 0.34 ± 0.01 nM
KOR [13]
  EC50: 0.14 nM
  Emax: 96 ± 1.9%
KOR [14]; [30]
  EC50: 16.4 nM
KOR [14]
  Emax: 48 ± 2.4%
KOR [14]; pEC50 arrestin recruitment (Tango) hKOR, ± SEM
  EC50: 16.2 nM
mMOR [15]
  EC50: 1.1 nM and 1.13 nM
  Emax: 54 ± 0.7%
mMOR [16]
  EC50: 2.27 nM
  Emax: 41 ± 3%
DOR [17]
  EC50: 2.49 nM
  Emax: 39 ± 1.8%
MOR [18]
  Emax: 42 ± 1.3%
[19]; DOR KO mice, 100 nmol i.c.v., 30 min, single mice and mean (n=8)
  30 min (tail-withdrawal latency): 15 s and 8 s and 14.125 s
[19]; [31]
  40 min (tail-withdrawal latency): 15 s and 14.7 s and 12.1 s and 14.6 s
  %A-40 min (% antinociception): 100% and 97.83% and 77.34% and 96.8962%
[19]; DOR KO mice, 100 nmol i.c.v., 100 min, single mice and mean (n=8)
  %A-100 min (% antinociception): 0% and 3.7% and 0.72% and 6.25% and 1.334%
[19]; [32]
  110 min (tail-withdrawal latency): 1.4 s and 1.9 s and 1.3 s and 1.6 s and 1.5 s and 2.2 s and 1.5625 s
  %A-110 min (% antinociception): 0% and 2.96% and 2.9% and 0.7325%
[19]; [33]
  60 min (tail-withdrawal latency): 1.3 s and 1.2 s and 1.5 s and 1.7 s and 1.4 s and 1.4375 s
  %A-60 min (% antinociception): 0% and 2.17% and 3.62% and 2.16% and 1.446%
[19]; [34]
  70 min (tail-withdrawal latency): 1.3 s and 1.4 s and 1.8 s and 1.2 s and 1.35 s
  %A-70 min (% antinociception): 0% and 0.72% and 2.94% and 0.7275%
[19]; [35]
  80 min (tail-withdrawal latency): 1.3 s and 1.1 s and 1.9 s and 1.2 s and 1.2875 s
  %A-80 min (% antinociception): 0% and 5.07% and 0.72% and 0.7238%
[19]; [36]
  antinociception in DOR KO mice vs WT: remained intact
  antinociception in KOR KO mice vs WT: attenuated
  antinociception in MOR KO mice vs WT: attenuated
mMOR [20]
  arrestin recruitment at mMOR (in words): No recruitment of βarrestin-2

## O=C(N[C@@H]1CCC2C3Cc4ccc(O)c5c4[C@@]2(CCN3CC2CC2)C1O5)c1cccc(I)c1 (stereo partly drawn) [MP1202, N-((7R,12bS)−3-(Cyclopropylmethyl)−9-hydroxy-2,3,4,4a,5,6,7,7a-octahydro-1H-4,12-methanobenzofuro[3,2-e]isoquinolin-7-yl)−3-iodobenzamide]
mDOR [1]; [29]
  EC50: 7.03 nM
mDOR [1]
  Emax: 103 ± 4.6%
mDOR [1]; pEC50 G protein activation (BRET) mDOR, ± SEM
  EC50: 7.94 nM
mDOR [2]
  Emax: 71 ± 2%
rKOR [21]
  Log RA BRET-G rKOR: 9.906±0.088
  LogRA BRET-Arr rKOR: 8.791±0.171
  ΔΔlog RA (BRETG-BRETArr) rKOR: -0.399±0.27
rKOR [21]; vs U50,488h
  ΔlogRA BRET-G rKOR: 1.594±0.117
  ΔlogRA BRET-arr rKOR: 1.993±0.239
Y312W-hKOR [3]
  Emax: 101 ± 1.5%
mDOR [22]; EC50 arrestin recruitment (BRET) mDOR
  EC50: 525 nM
mDOR [22]; HEK-293T, read-out: Emax% arrestin recruitment (BRET) mDOR
  Emax: 26 ± 2.3%
Y312W-hKOR [23]
  Log RA cAMP Y312W-hKOR: 10.63±0.005
  LogRA Tango Y312W-hKOR: 8.091±0.051
  ΔΔlog RA (cAMP-Tango) Y312W-hKOR: 1.53±0.073
Y312W-hKOR [23]; vs U50,488h
  Bias factor (cAMP-Tango) Y312W-hKOR: 34
  ΔlogRA Tango Y312W-hKOR: 0.532±0.073
  ΔlogRA cAMP Y312W-hKOR: 2.062±0.007
rKOR [4]
  Emax: 104 ± 2%
mMOR [24]
  Emax% G protein activation (BRET) mMOR: 61±1.5%
KOR [5]
  ΔΔlog RA (cAMP-Tango) hKOR: -0.19±0.072
  Log RA cAMP hKOR: 11.88±0.050
  LogRA Tango hKOR: 10.30±0.004
KOR [5]; vs U50,488h
  ΔlogRA Tango hKOR: 1.856±0.006
  ΔlogRA cAMP hKOR: 1.66±0.072
Y312W-hKOR [25]
  EC50: 3.4 nM
Y312W-hKOR [25]; read-out: Emax% arrestin recruitment (Tango) Y312W-hKOR
  Emax: 55 ± 2.6%
mKOR [9]
  Ki: 0.11 ± 0.064 nM
MOR [26]
  EC50: 26.8 nM
MOR [26]; HTLA, read-out: Emax% arrestin recruitment (Tango) hMOR
  Emax: 53 ± 2%
mKOR [10]
  EC50: 0.13 ± 0.02 nM
  Emax: 94 ± 5%
DOR [11]; EC50 arrestin recruitment hDOR
  EC50: 18.1 nM
DOR [11]
  Emax: 26 ± 3.1%
mMOR [12]
  Ki: 0.071 ± 0.031 nM
KOR [13]
  EC50: 0.00139 nM
  Emax: 97.9 ± 2.5%
KOR [14]; [30]
  EC50: 0.0457 nM
KOR [14]
  Emax: 101 ± 1%
mMOR [15]
  EC50: 0.32 ± 0.03 nM
  Emax: 68 ± 1%
MOR [27]
  Bias factor (cAMP-Tango) hMOR: 31
  Log RA cAMP hMOR: 9.99±0.012
  LogRA Tango hMOR: 7.24±0.002
  ΔlogRA Tango hMOR: 0.058±0.002
  ΔlogRA cAMP hMOR: 1.55±0.016
  ΔΔlog RA (cAMP-Tango) hMOR: 1.49±0.016
mMOR [16]
  EC50: 0.63 nM
  Emax: 70%
DOR [17]
  EC50: 8.18 nM
  Emax: 99 ± 2.2%
rKOR [28]
  Emax: 77 ± 5%
MOR [18]; EC50 cAMP inhibition hMOR
  EC50: 0.077 nM
MOR [18]
  Emax: 92 ± 1.4%
mMOR [20]
  EC50: 3140 nM
  Emax% arrestin recruitment (BRET) mMOR: 53 ± 1.6%
mMOR [20]; HEK-293T, read-out: Emax% arrestin recruitment (BRET) mMOR
  Emax: 57%
